For one data set, the target named is T1, Histidinol dehydrogenase (Brucella suis biovar 1 (strain 1330), UniProt Q8G2R2).
T1 sequence (Q8G2R2 whole entry): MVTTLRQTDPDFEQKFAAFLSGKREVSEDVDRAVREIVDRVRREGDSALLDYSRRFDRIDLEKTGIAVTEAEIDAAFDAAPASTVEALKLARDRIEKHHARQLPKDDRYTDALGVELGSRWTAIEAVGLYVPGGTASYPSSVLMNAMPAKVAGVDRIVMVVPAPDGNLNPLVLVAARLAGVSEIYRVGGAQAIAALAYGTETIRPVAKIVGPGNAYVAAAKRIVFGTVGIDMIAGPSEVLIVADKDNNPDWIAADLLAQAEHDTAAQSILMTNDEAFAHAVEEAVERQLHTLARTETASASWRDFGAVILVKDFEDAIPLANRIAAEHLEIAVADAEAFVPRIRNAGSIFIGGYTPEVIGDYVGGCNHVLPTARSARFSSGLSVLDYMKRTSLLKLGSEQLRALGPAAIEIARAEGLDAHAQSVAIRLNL
Description: Inhibition of Brucella suis histidinol dehydrogenase.

Substrate in data set [1]: N[C@H](CO)Cc1c[nH]cn1
Description: Activity of Brucella suis histidinol dehydrogenase.

The term IC50 denotes the concentration that inhibits the measured activity by half. Higher therefore signals a need for much substance. With `Cc1ccc(CC(=O)[C@@H](N)Cc2c[nH]cn2)cc1`, 15 nM corresponded to half-maximal inhibition on Histidinol dehydrogenase (IC50). The same measure, in the same setting: to `N[C@@H](Cc1c[nH]cn1)C(=O)Cc1ccccc1` belongs 40 nM. On the same count and under the same terms, then `N[C@@H](Cc1c[nH]cn1)C(=O)Cc1ccc(Cl)cc1`, with 12 nM. On the same count and under the same terms, then `N[C@@H](Cc1c[nH]cn1)C(=O)Cc1ccc2ccccc2c1`, with 14.5 nM; and `N[C@@H](Cc1c[nH]cn1)C(=O)Cc1c(F)c(F)c(F)c(F)c1F`, with 70 nM. `N[C@@H](Cc1c[nH]cn1)C(=O)Cc1ccc(OCc2ccccc2)cc1`: on Histidinol dehydrogenase, the IC50 is 3 nM. The same measure, in the same setting: to `N[C@@H](Cc1c[nH]cn1)C(=O)Cc1cccc2ccccc12` belongs 200 nM; to `N[C@@H](Cc1c[nH]cn1)C(=O)Cc1ccc(Oc2ccccc2)cc1`, 16 nM. Same read-out and setting: to `COc1ccc(CC(=O)[C@@H](N)Cc2c[nH]cn2)cc1` belongs 150 nM. `N[C@@H](Cc1c[nH]cn1)C(=O)Cc1ccc(Br)cc1`: half-maximal inhibition on Histidinol dehydrogenase (IC50) required 6 nM. On the same count and under the same terms, to `N[C@@H](Cc1c[nH]cn1)C(=O)Cc1ccc(-c2ccccc2)cc1` belongs 12.5 nM. As to `N[C@@H](Cc1c[nH]cn1)C(=O)Cc1ccc(Cl)c(Cl)c1`, half-maximal inhibition against Histidinol dehydrogenase (IC50) was put at 20 nM. `N[C@@H](Cc1c[nH]cn1)C(=O)Cc1ccc(F)cc1F`: inhibition on Histidinol dehydrogenase was half-maximal at 10 nM (IC50). Same read-out and setting: to `N[C@@H](Cc1c[nH]cn1)C(=O)Cc1ccc2c(c1)OCO2` belongs 25 nM; to `N[C@@H](Cc1c[nH]cn1)C(=O)Cc1ccc(F)cc1`, 15 nM.

B1: Histidinol dehydrogenase (Brucella suis biovar 1 (strain 1330)), Q8G2R2 (protein)
chain: T1 sequence (Q8G2R2 whole entry)
Usually Km stands for the substrate concentration at which the rate is half of its maximum. In the case of B1, the Km in data set [1] was found to be 12 µM.

The values are drawn from ChEMBL document CHEMBL1143663, “Brucella suis histidinol dehydrogenase: synthesis and inhibition studies of a series of substituted benzylic ketones derived from histidine” (Bioorg Med Chem, 2007).
